{
  "source": "patent US20150307938A1",
  "about": "“METHOD TO IDENTIFY A NOVEL CLASS OF IMMUNOLOGIC ADJUVANTS” (Lancell, L.L.C., priority 2011, published 2015)",
  "tested_on": "skin",
  "assay": "Affymetrix microarray of skin, DBP-4 hr and analogs vs. untreated; gene selection by log-2 fold change, Wilcoxon, Kendall tau (Tables 8, 9)",
  "type": "in vivo, mouse",
  "details": "for Wilcoxon: DBP-4 hr vs. untreated, selected by p-value; for Kendall: selected by Kendall tau, expression vs. output",
  "key": {"[1]": {"details": "gene 1500032L24Rik NM_026914_at"}, "[2]": {"details": "gene 2210016L21Rik NM_028211_at"}, "[3]": {"details": "gene 4931408A02Rik NM_027627_at"}, "[4]": {"details": "gene 4933407C03Rik NM_028941_at"}, "[5]": {"details": "gene 5730494N06Rik NM_027478_at"}},
  "data": [
    {"smiles": "CCCCOC(=O)c1ccccc1C(=O)OCCCC", "note": "[DBP, dibutylphthalate]", "values": [
      {"measurement": "Wilcoxon", "setting": "[1]", "result": "No"},
      {"measurement": "Kendall", "setting": "[1]", "result": "Yes"},
      {"measurement": "Wilcoxon", "setting": "[2]", "result": "No"},
      {"measurement": "Kendall", "setting": "[2]", "result": "Yes"},
      {"measurement": "Wilcoxon", "setting": "[3]", "result": "No"},
      {"measurement": "Kendall", "setting": "[3]", "result": "Yes"},
      {"measurement": "Wilcoxon", "setting": "[4]", "result": "No"},
      {"measurement": "Kendall", "setting": "[4]", "result": "Yes"},
      {"measurement": "Wilcoxon", "setting": "[5]", "result": "No"},
      {"measurement": "Kendall", "setting": "[5]", "result": "Yes"},
      {"measurement": "Wilcoxon", "setting": "gene Ankrd24 NM_027480_at", "result": "No"},
      {"measurement": "Kendall", "setting": "gene Ankrd24 NM_027480_at", "result": "Yes"},
      {"measurement": "Wilcoxon", "setting": "gene Cby1 NM_028634_at", "result": "No"},
      {"measurement": "Kendall", "setting": "gene Cby1 NM_028634_at", "result": "Yes"},
      {"measurement": "Wilcoxon", "setting": "gene Ccdc123 NM_028120_at", "result": "No"},
      {"measurement": "Kendall", "setting": "gene Ccdc123 NM_028120_at", "result": "Yes"},
      {"measurement": "Wilcoxon", "setting": "gene Cdc42ep1 NM_027219_at", "result": "No"},
      {"measurement": "Kendall", "setting": "gene Cdc42ep1 NM_027219_at", "result": "Yes"},
      {"measurement": "Wilcoxon", "setting": "gene Cdca4 NM_028023_at", "result": "No"},
      {"measurement": "Kendall", "setting": "gene Cdca4 NM_028023_at", "result": "Yes"},
      {"measurement": "Wilcoxon", "setting": "gene Cenpv NM_028448_at", "result": "No"},
      {"measurement": "Kendall", "setting": "gene Cenpv NM_028448_at", "result": "Yes"},
      {"measurement": "Wilcoxon", "setting": "gene Chst14 NM_028117_at", "result": "No"},
      {"measurement": "Kendall", "setting": "gene Chst14 NM_028117_at", "result": "Yes"},
      {"measurement": "Wilcoxon", "setting": "gene Cnot8 NM_026949_at", "result": "No"},
      {"measurement": "Kendall", "setting": "gene Cnot8 NM_026949_at", "result": "Yes"},
      {"measurement": "Wilcoxon", "setting": "gene Ebpl NM_026598_at", "result": "No"},
      {"measurement": "Kendall", "setting": "gene Ebpl NM_026598_at", "result": "Yes"},
      {"measurement": "Wilcoxon", "setting": "gene Ict1 NM_026729_at", "result": "No"},
      {"measurement": "Kendall", "setting": "gene Ict1 NM_026729_at", "result": "Yes"},
      {"measurement": "Wilcoxon", "setting": "gene Ift80 NM_026641_at", "result": "No"},
      {"measurement": "Kendall", "setting": "gene Ift80 NM_026641_at", "result": "Yes"},
      {"measurement": "Wilcoxon", "setting": "gene Lrrfip2 NM_027742_at", "result": "No"},
      {"measurement": "Kendall", "setting": "gene Lrrfip2 NM_027742_at", "result": "Yes"},
      {"measurement": "Wilcoxon", "setting": "gene Med23 NM_027347_at", "result": "No"},
      {"measurement": "Kendall", "setting": "gene Med23 NM_027347_at", "result": "Yes"},
      {"measurement": "Wilcoxon", "setting": "gene Mlh1 NM_026810_at", "result": "No"},
      {"measurement": "Kendall", "setting": "gene Mlh1 NM_026810_at", "result": "Yes"},
      {"measurement": "Wilcoxon", "setting": "gene Mterfd3 NM_028832_at", "result": "No"},
      {"measurement": "Kendall", "setting": "gene Mterfd3 NM_028832_at", "result": "Yes"},
      {"measurement": "Wilcoxon", "setting": "gene Rnf135 NM_028019_at", "result": "No"},
      {"measurement": "Kendall", "setting": "gene Rnf135 NM_028019_at", "result": "Yes"},
      {"measurement": "Wilcoxon", "setting": "gene Rnf157 NM_027258_at", "result": "No"},
      {"measurement": "Kendall", "setting": "gene Rnf157 NM_027258_at", "result": "Yes"},
      {"measurement": "Wilcoxon", "setting": "gene Rrp1b NM_028244_at", "result": "No"},
      {"measurement": "Kendall", "setting": "gene Rrp1b NM_028244_at", "result": "Yes"},
      {"measurement": "Wilcoxon", "setting": "gene Slc25a35 NM_028048_at", "result": "No"},
      {"measurement": "Kendall", "setting": "gene Slc25a35 NM_028048_at", "result": "Yes"},
      {"measurement": "Wilcoxon", "setting": "gene Tmem55a NM_028264_at", "result": "No"},
      {"measurement": "Kendall", "setting": "gene Tmem55a NM_028264_at", "result": "Yes"},
      {"measurement": "Wilcoxon", "setting": "gene Tmem80 NM_027797_at", "result": "No"},
      {"measurement": "Kendall", "setting": "gene Tmem80 NM_027797_at", "result": "Yes"},
      {"measurement": "Wilcoxon", "setting": "gene Tmtc4 NM_028651_at", "result": "No"},
      {"measurement": "Kendall", "setting": "gene Tmtc4 NM_028651_at", "result": "Yes"},
      {"measurement": "Wilcoxon", "setting": "gene Zfyve21 NM_026752_at", "result": "No"},
      {"measurement": "Kendall", "setting": "gene Zfyve21 NM_026752_at", "result": "Yes"}
    ]}
  ]
}
